This passage reports Activity, Ki and inhibition results from ChEMBL document CHEMBL4145475, “Integration of multi-scale molecular modeling approaches with experiments for the in silico guided design and discovery of novel hERG-Neutral antihypertensive oxazalone and imidazolone derivatives and analysis of their potential restrictive effects on cell proliferation” (Eur J Med Chem, 2018).

Active and inactive are the calls of the source. The calls are words filed in the database; no cut-off is given here.

The test system of series [1] is MCF7. In words: Cell cycle arrest in human MCF7 cells assessed as cell death at 50 to 100 uM after 24 hrs by propidium iodide staining-based flow cytometric analysis. The class given is functional. On the technique in general: A flow cytometer gives signals particle by particle.
Series [2] concerns MCF7. Nature of the series: Cell cycle arrest in human MCF7 cells assessed as cell detachment at 50 to 100 uM after 24 hrs by propidium iodide staining-based flow cytometric analysis. The class given is functional.
In series [3] the test system is NIH3T3. In words: Cytotoxicity against mouse NIH/3T3 cells at 1 to 10 uM after 72 hrs measured during wound-healing assay. The class given is cell-based. The conditions noted are these: nih3t3, 72 h.
Series [4] has as its system MCF7. In words: Cell cycle arrest in human MCF7 cells assessed as decrease in cells at G0/G1 phase after 48 hrs by propidium iodide staining-based flow cytometric analysis. It is filed as functional.
For series [5], the target named is T1, Type-1 angiotensin II receptor (Homo sapiens, UniProt P30556).
T1 sequence (P30556 whole entry): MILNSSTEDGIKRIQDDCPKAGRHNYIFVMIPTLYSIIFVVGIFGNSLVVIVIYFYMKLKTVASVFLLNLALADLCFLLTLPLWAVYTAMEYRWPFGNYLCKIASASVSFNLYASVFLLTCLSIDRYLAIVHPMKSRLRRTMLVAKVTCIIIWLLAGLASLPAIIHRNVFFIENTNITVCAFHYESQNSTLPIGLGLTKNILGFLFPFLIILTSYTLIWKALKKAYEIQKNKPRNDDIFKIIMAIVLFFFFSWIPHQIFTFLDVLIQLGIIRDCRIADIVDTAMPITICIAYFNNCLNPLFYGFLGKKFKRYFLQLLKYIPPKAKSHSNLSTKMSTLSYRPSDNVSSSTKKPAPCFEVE
Nature of the series: (§1) Displacement of [125I-Sar1-Ile8]-Ang2 from human angiotensin 2 receptor type 1 receptor expressed in HEK293 cells after 1 hr by gamma counting analysis. The class given is cell-based. A general note: Loss of bound radioactivity is the signal in a displacement assay; it reports binding, not function.

Series [6] deals with A549. Nature of the series: Cytotoxicity against human A549 cells at 1 to 10 uM after 72 hrs measured during wound-healing assay. The class given is cell-based. The conditions noted are these: a549, 72 h.
For series [7], the system named is MCF7. In words: Cell cycle arrest in human MCF7 cells assessed as increase in cells at G2/M phase after 48 hrs by propidium iodide staining-based flow cytometric analysis. The class given is functional.
The subject of series [8] is MCF7. Nature of the series: Cell cycle arrest in human MCF7 cells assessed as accumulation of cells at subG1 phase at 50 to 100 uM after 24 hrs by propidium iodide staining-based flow cytometric analysis. The class given is functional.
In series [9] the test system is HUVEC. Nature of the series: Cell cycle arrest in human HUVEC cells assessed as cell death at 50 to 100 uM after 24 hrs by propidium iodide staining-based flow cytometric analysis. The class given is ADME.
The test system of series [10] is MCF7. In words: Cell cycle arrest in human MCF7 cells assessed as accumulation of cells with 8N DNA content at 100 uM after 1 to 2 days by propidium iodide staining-based flow cytometric analysis relative to control. It is filed as functional.
The test system of series [11] is HUVEC. In words: Cell cycle arrest in human HUVEC cells assessed as accumulation of cells at subG1 phase at 50 to 100 uM after 24 hrs by propidium iodide staining-based flow cytometric analysis. The class given is ADME.
Series [12] has as its system HUVEC. In words: Cell cycle arrest in human HUVEC cells assessed as increase in cells at G2/M phase after 24 hrs by propidium iodide staining-based flow cytometric analysis. It is filed as ADME.
In series [13] the test system is NIH3T3. In words: Cytotoxicity against mouse NIH/3T3 cells up to 30 uM after 48 hrs by WST-1 assay. The class given is cell-based. Conditions: nih3t3, 48 h.
Series [14] has as its system A549. In words: Antimigratory activity against human A549 cells at 10 uM after 72 hrs by wound-healing assay. The class given is functional, cell-based.
The subject of series [15] is NCI-H358. Nature of the series: Cytotoxicity against human NCI-H358 cells up to 30 uM after 48 hrs by WST-1 assay. Conditions: nci-h358, 48 h. The class given is cell-based.
The test system of series [16] is A549. In words: Cytotoxicity against human A549 cells up to 30 uM after 48 hrs by WST-1 assay. The class given is cell-based. The conditions noted are these: a549, 48 h. For orientation: Tetrazolium dyes change colour on reduction, which living cells bring about.
Series [17] deals with HUVEC. Nature of the series: Cell cycle arrest in human HUVEC cells assessed as accumulation of cells with 8N DNA content at 100 uM after 1 to 2 days by propidium iodide staining-based flow cytometric analysis relative to control. It is filed as ADME.
In series [18] the test system is NCI-H358. Nature of the series: Cytotoxicity against human NCI-H358 cells at 1 to 10 uM after 48 hrs measured during wound-healing assay. Conditions: nci-h358, 48 h. It is filed as cell-based.
The subject of series [19] is NIH3T3. In words: Antimigratory activity against mouse NIH/3T3 cells at 10 uM after 72 hrs by wound-healing assay. The class given is ADME, cell-based. The conditions noted are these: nih3t3, 72 h.
Series [20] deals with NCI-H358. Nature of the series: Antimigratory activity against human NCI-H358 cells at 10 uM after 48 hrs by wound-healing assay. It is filed as functional, cell-based.
Series [21] has as its system HUVEC. Nature of the series: Cell cycle arrest in human HUVEC cells assessed as decrease in cells at G0/G1 phase after 24 hrs by propidium iodide staining-based flow cytometric analysis. It is filed as ADME.
The subject of series [22] is HUVEC. Nature of the series: Cell cycle arrest in human HUVEC cells assessed as cell detachment at 50 to 100 uM after 24 hrs by propidium iodide staining-based flow cytometric analysis. It is filed as ADME.
The target in series [23] is T2, Type-1 angiotensin II receptor (Homo sapiens) (UniProt P30556).
T2 sequence (whole entry): T1 sequence (P30556 whole entry)
The series is described as §1. It is filed as cell-based.

In the case of `CCCCC1=N/C(=C\c2ccc(Br)cc2)C(=O)N1Cc1ccc(-c2ccccc2C#N)cc1`, the result in the series with MCF7 [1], with MCF7 [2], in the series on MCF7 [8], in the series on A549 [14] and in the series on NCI-H358 [20] was Active. Further, the Activity result is “Non-Toxic” with NIH3T3 [3]; “Dose-dependent effect” in the series with MCF7 [4]; “Non-Toxic” in the series on A549 [6]; “Dose-dependent effect” with MCF7 [7]; “Toxic” with HUVEC [9]; more than 70% in the series on MCF7 [10]. For the same compound, the Activity result with HUVEC [11] is “Toxic”; with HUVEC [12], “Dose-dependent effect”; in the series on NIH3T3 [13], “Non-Toxic”; in the series with NCI-H358 [15], “Non-Toxic”; in the series on A549 [16] it was “Non-Toxic”; with HUVEC [17], 90%. In addition, the Activity entry was “Non-Toxic” in the series on NCI-H358 [18], “Toxic” in the series with NIH3T3 [19], “Dose-dependent effect” in the series on HUVEC [21] and “Toxic” with HUVEC [22]. In addition, the Ki – broadly, a measure of affinity in units of concentration, obtained from inhibition or displacement – in series [5] came out at 24800 nM.
`CCCCC1=N/C(=C\c2cccc(Br)c2)C(=O)N1Cc1ccc(-c2ccccc2-c2nnn(C(c3ccccc3)(c3ccccc3)c3ccccc3)n2)cc1`: the Activity result with NIH3T3 [3], in the series with A549 [6], with NIH3T3 [13], in the series on NCI-H358 [15], in the series with A549 [16] and with NCI-H358 [18] was “Non-Toxic” throughout. The result with A549 [14] and in the series on NCI-H358 [20] was Active.
In the case of `CCOc1nc2cccc(C(=O)O)c2n1Cc1ccc(-c2ccccc2-c2nnn[nH]2)cc1`, the Ki in series [5] came out at 10.4 nM.
Consider `CCCCC1=N/C(=C\c2cccc(Cl)c2)C(=O)N1Cc1ccc(-c2ccccc2-c2nnn(C(c3ccccc3)(c3ccccc3)c3ccccc3)n2)cc1`, for which the Activity entry in the series with NIH3T3 [3], with A549 [6], with NIH3T3 [13], in the series on NCI-H358 [15], in the series on A549 [16] and in the series with NCI-H358 [18] was “Non-Toxic” in each case. Further, the outcome in the series on A549 [14] was Active.
Turning to `CCCCC1=N/C(=C\c2ccccc2Br)C(=O)N1Cc1ccc(-c2ccccc2-c2nnn(C(c3ccccc3)(c3ccccc3)c3ccccc3)n2)cc1`, the Activity entry with NIH3T3 [3], with A549 [6], in the series with NIH3T3 [13], with NCI-H358 [15], in the series on A549 [16] and in the series on NCI-H358 [18] was “Non-Toxic” each time. Besides, the Activity entry with NIH3T3 [19] is on record as “Toxic”. In addition, affinity in [5] was put at a Ki of 317 nM. Further, the inhibition result in [23] is “Dose-dependent effect”. Besides, the outcome in the series on A549 [14] was Active.
`CCCCC1=N/C(=C\c2ccc(Cl)cc2)C(=O)N1Cc1ccc(-c2ccccc2-c2nnn(C(c3ccccc3)(c3ccccc3)c3ccccc3)n2)cc1`: the Activity result with NIH3T3 [3], with A549 [6], in the series with NIH3T3 [13], in the series with NCI-H358 [15], with A549 [16] and in the series on NCI-H358 [18] was “Non-Toxic” in each case.
In the case of `CCCCC1=N/C(=C\c2ccc(Br)cc2)C(=O)N1Cc1ccc(-c2ccccc2-c2nnn(C(c3ccccc3)(c3ccccc3)c3ccccc3)n2)cc1`, the Activity entry in the series on NIH3T3 [3], in the series on A549 [6], in the series on NIH3T3 [13], in the series on NCI-H358 [15], in the series on A549 [16] and with NCI-H358 [18] was “Non-Toxic” throughout. Besides, the result in the series on NCI-H358 [20] was Active.
In the case of `CCCCC(=O)N(Cc1ccc(-c2ccccc2-c2nnn[nH]2)cc1)[C@H](C(=O)O)C(C)C`, the Activity result in the series with NIH3T3 [13] is recorded as “Non-Toxic”; in the series on NCI-H358 [15], “Non-Toxic”; in the series with A549 [16], “Non-Toxic”; in the series on NIH3T3 [19], “Toxic”. The result in the series on A549 [14] and with NCI-H358 [20] was Active.
